Experimental data: patent US10570077B2, “Substituted (4'-hydroxyphenyl)cyclohexane compounds and uses thereof as selective agonists of the estrogen receptor beta isoform” (Marquette University, priority 2013, dated 2020)
Where “and” joins values, the source holds several entries; their conditions need not be identical. Equal entries are not always repeated. Where two headings read alike, the source gives them in different places. Values belong to the molecule of their own block, whether it stands above or below them.

Columns and labels:
ERα [1] = target: T1, ERα (Homo sapiens (Human), UniProt P03372); assay: Fluorescence polarization displacement assay (FITC-estradiol tracer); type: binding; settings: for affinity for ERα (qualitative): at concentrations as high as 1 μM; for IC50: read-out: IC50 (ERα affinity, fluorescence polarization displacement assay)
Procedure: ([Tr]) was 10 nM. Sample volume was 150 μL. For each experiment the polarization was calibrated with a sample of FITC set at 20 mP. All proper blanks were used, including water for the FITC samples and blank samples containing only 30 nM ERα protein for the remaining data points.

ERβ [2] = target: T2, ERβ (Homo sapiens (Human), UniProt Q92731); assay: Cell-based ERβ luminescence (luciferase reporter) agonist assay
From the text: (§1) ERα and ERβ assay kits for cell-based assays (Indigo Biosciences) allowed for investigation into the functional activity (i.e. agonist and/or antagonist) of the ligands identified to bind based on the initial fluorescence polarization displacement assay. Briefly, the cells contained a luciferase reporter gene that was functionally linked to either the ERα or ERβ-responsive promoter. By quantifying the luciferase expression via luminescence, the change in ER activity could be quantified. […] For the agonist assay, the cells were prepared by warming to 37° C., plated, then the chemicals added. […] The cells were then plated, and the chemicals added. All plates were incubated in a cell culture incubator at 37° C. and 5% CO2 for 22 h. Each assay was performed in duplicate. Luminescence was characterized after removal of the incubating media and introduction of the Detection Substrate using a Molecular Devices SpectraMax M5 microplate reader. Data was fitted using GraphPad Prism and fit to the dose-response (four parameter) equation as follows.

ERβ [3] = target: T2, ERβ; assay: Cell-based ERβ luminescence antagonist assay (+E2)
From the text: as §1

ERα [4] = target: T1, ERα; assay: Cell-based ERα luminescence (luciferase reporter) agonist assay
From the text: as §1

ERα [5] = target: T1, ERα; assay: Cell-based ERα luminescence antagonist assay (+E2)
Procedure: ERα and ERβ assay kits for cell-based assays (Indigo Biosciences) allowed for investigation into the functional activity (i.e. agonist and/or antagonist) of the ligands identified to bind based on the initial fluorescence polarization displacement assay. Briefly, the cells contained a luciferase reporter gene that was functionally linked to either the ERα or ERβ-responsive promoter. By quantifying the luciferase expression via luminescence, the change in ER activity could be quantified. 1-2 mM stocks of the ligands were prepared in d6-DMSO and diluted to final concentrations ranging from 3.2 nM to 2 μM, using the Compound Screening Medium provided in the kit. For the agonist assay, the cells were prepared by warming to 37° C., plated, then the chemicals added. […] The cells were then plated, and the chemicals added. All plates were incubated in a cell culture incubator at 37° C. and 5% CO2 for 22 h. Each assay was performed in duplicate. Luminescence was characterized after removal of the incubating media and introduction of the Detection Substrate using a Molecular Devices SpectraMax M5 microplate reader. Data was fitted using GraphPad Prism and fit to the dose-response (four parameter) equation as follows.

ERβ [6] = target: T2, ERβ; assay: TR-FRET ERβ binding assay; settings: TR-FRET tracer displacement
Procedure: The binding activity of substituted (4′-hydroxyphenyl)cycloalkane compounds was tested using a TR-FRET ERβ binding assay as illustrated in FIG. 12. […] When the tracer used in the assay is bound, then the ratio is high. When the tracer is displaced, the ratio is low. The following compounds were tested.

[7] = fluorescence polarization displacement
[8] = 160 pM E2 added, read-out: ERβ antagonist IC50
[9] = normalized, read-out: ERα Normalized Agonist
[10] = normalized, read-out: ERβ Agonist normalized

T1 sequence (P03372 whole entry): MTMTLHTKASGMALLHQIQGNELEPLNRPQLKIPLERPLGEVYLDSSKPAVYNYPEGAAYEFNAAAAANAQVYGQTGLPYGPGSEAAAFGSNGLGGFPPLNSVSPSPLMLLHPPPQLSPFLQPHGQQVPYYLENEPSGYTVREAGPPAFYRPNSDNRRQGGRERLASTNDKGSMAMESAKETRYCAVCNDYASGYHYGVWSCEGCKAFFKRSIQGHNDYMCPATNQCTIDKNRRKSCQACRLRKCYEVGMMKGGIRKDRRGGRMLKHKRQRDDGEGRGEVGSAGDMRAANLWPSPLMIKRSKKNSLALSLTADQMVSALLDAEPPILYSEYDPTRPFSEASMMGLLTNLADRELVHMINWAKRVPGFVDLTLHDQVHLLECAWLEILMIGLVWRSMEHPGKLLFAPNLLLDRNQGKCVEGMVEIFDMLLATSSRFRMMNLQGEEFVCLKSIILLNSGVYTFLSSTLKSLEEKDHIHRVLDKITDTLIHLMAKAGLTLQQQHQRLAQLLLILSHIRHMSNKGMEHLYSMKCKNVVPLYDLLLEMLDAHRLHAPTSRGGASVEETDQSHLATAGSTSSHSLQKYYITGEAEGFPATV
T2 sequence (Q92731 whole entry): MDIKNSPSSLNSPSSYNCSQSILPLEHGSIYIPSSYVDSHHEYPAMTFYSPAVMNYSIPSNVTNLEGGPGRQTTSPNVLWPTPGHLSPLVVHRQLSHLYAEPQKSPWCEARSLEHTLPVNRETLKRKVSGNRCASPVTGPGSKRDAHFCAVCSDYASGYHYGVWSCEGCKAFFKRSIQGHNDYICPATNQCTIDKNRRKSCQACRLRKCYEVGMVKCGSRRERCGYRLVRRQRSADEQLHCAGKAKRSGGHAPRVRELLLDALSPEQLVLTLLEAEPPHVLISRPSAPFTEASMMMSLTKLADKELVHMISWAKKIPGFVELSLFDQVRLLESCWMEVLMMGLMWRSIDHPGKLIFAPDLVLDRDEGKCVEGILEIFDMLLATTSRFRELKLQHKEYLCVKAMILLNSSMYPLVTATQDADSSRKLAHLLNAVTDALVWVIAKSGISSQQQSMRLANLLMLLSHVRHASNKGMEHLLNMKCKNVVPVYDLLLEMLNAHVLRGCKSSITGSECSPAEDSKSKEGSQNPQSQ

Structure (SMILES): OC[C@H]1CCC[C@@H](c2ccc(O)cc2)CC1 (racemic) [Compound 18, cis-1-Hydroxymethyl-4-(4′-hydroxyphenyl)-cycloheptane]
Kd (ERα [1]; accurate Kd could not be obtained, estimated): > 1000 nM | IC50 (ERβ [2]): 5.4 ± 0.3 nM | IC50 (ERβ [3]; read-out: ERβ antagonist IC50): 137 ± 100 nM

Structure (SMILES): OC[C@H]1CCC[C@@H](c2ccc(O)cc2)CC1 (relative stereo) [Compound 18, cis-1-Hydroxymethyl-4-(4′-hydroxyphenyl)-cycloheptane]
affinity for ERα (qualitative) (ERα [1]): significant affinity | ERβ antagonist activity (qualitative) (ERβ [3]): ERβ antagonist activity

Structure (SMILES): C[C@]12CC[C@@H]3c4ccc(O)cc4CC[C@H]3[C@@H]1CC=C2CO [Compound 2, 3-Hydroxvestra-1,3,5(10),16-tetraene-17-methanol]
ERα agonist activity (qualitative) (ERα [4]): agonist activity | IC50 (ERβ [2]): 6.8 ± 0.2 nM | ERβ antagonist activity (qualitative) (ERβ [3]): not ERβ antagonists

Structure (SMILES): CCCOC(=O)C1CC[C@H]2[C@@H]3CCc4cc(O)ccc4[C@H]3CC[C@]12C (some centres unmarked) [Compound 4, n-Propyl 3-hydroxyestra-1,3,5(10)-triene-17-carboxylate]
Kd (ERα [1]; [7]): 320 ± 40 nM | IC50 (ERα [1]): 160 to 320 nM | IC50 (ERα [4]): 92 ± 1 nM | IC50 (ERβ [2]): 9.8 ± 2 nM

Structure (SMILES): CC[C@H](C)C1=CC[C@H]2[C@@H]3CCc4cc(O)ccc4[C@H]3CC[C@]12C [Compound 7, (20S) 3-Hydroxy-19,24-dinorchola-1,3,5(10),16-tetraene]
affinity for ERα (qualitative) (ERα [1]): significant affinity | Kd (ERα [1]; [7]): 160 ± 10 nM | IC50 (ERα [1]): 160 to 320 nM | IC50 (ERβ [2]): 88 ± 9 nM | ERβ antagonist activity (qualitative) (ERβ [3]): ERβ antagonist activity | IC50 (ERβ [3]; [8]): 70 ± 15 nM

Structure (SMILES): C[C@@H](CCO)C1=CC[C@H]2[C@@H]3CCc4cc(O)ccc4[C@H]3CC[C@]12C [Compound 11, (20S) 3-Hydroxy-19,24-Dinorchola-1,3,5(10),16-tetraen-23-ol]
affinity for ERα (qualitative) (ERα [1]): significant affinity | Kd (ERα [1]; [7]): 320 ± 40 nM | IC50 (ERβ [2]): 108 ± 67 nM | ERβ antagonist activity (qualitative) (ERβ [3]): ERβ antagonist activity | IC50 (ERβ [3]; [8]): 275 ± 40 nM

Structure (SMILES): CC1C[C@H](C)C2(CC[C@H]3[C@@H]4CCc5cc(O)ccc5[C@H]4CC[C@@]32C)O1 (some centres unmarked) [Compound 13, 17,23-Epoxy-3-hydroxy-19-norchola-1,3,5(10)-triene]
affinity for ERα (qualitative) (ERα [1]): significant affinity | Kd (ERα [1]; [7]): 160 ± 10 nM | ERα agonist activity (qualitative) (ERα [4]): agonist activity | IC50 (ERα [4]): 484 ± 1 nM | IC50 (ERβ [2]): 111 ± 26 nM | ERβ antagonist activity (qualitative) (ERβ [3]): not ERβ antagonists

Next, values leading:

EC50 (ERα [4]; [9]): 10500 ± 200 nM | EC50 (ERα [4]; read-out: ERα Agonist): > 10000 nM | EC50 (ERβ [2]; read-out: ERβ Agonist): 30 nM and 33 nM | IC50 (ERβ [3]): > 100000 nM | IC50 (ERα [5]): > 10000 nM | IC50 (ERβ [6]): 23.5 ± 8 nM
Structure (SMILES): OCC1CCC[C@@H](c2ccc(O)cc2)CC1 (some centres unmarked) [ISP-163]

EC50 (ERα [4]; [9]): 350000 ± 250000 nM | EC50 (ERα [4]; read-out: ERα Agonist): > 10000 nM | EC50 (ERβ [2]; read-out: ERβ Agonist): 731 ± 85 nM | IC50 (ERβ [3]): > 10000 nM | IC50 (ERα [5]): > 10000 nM
Structure (SMILES): O/N=C1/CCCC(c2ccc(O)cc2)CC1 (centres unmarked) [ISP-166]

EC50 (ERα [4]; [9]): 700000 ± 80000 nM | EC50 (ERα [4]; read-out: ERα Agonist): > 10000 nM | IC50 (ERα [5]): > 10000 nM
Structure (SMILES): OCC1CCC(c2ccc(O)cc2)CC1 (centres unmarked) [ISP-171]

EC50 (ERα [4]; [9]): 45000 ± 17000 nM | EC50 (ERα [4]; read-out: ERα Agonist): > 10000 nM | EC50 (ERβ [2]; [10]): 104 nM | EC50 (ERβ [2]; read-out: ERβ Agonist): 142 ± 17 nM | IC50 (ERβ [3]): > 10000 nM | IC50 (ERα [5]): > 10000 nM | IC50 (ERβ [6]): 36.8 ± 9.2 nM
Structure (SMILES): OCCC1CCCC(c2ccc(O)cc2)CC1 (centres unmarked) [ISP-248]

IC50 (ERβ [6]): 378 ± 97 nM
Structure (SMILES): OC[C@H]1C=CCC(c2ccc(O)cc2)C=C1 (some centres unmarked) [RKP-35c]

IC50 (ERβ [6]): 521 ± 87 nM
Structure (SMILES): OCC=C1CCC(c2ccc(O)cc2)CC1 (centres unmarked) [RKP-228]

EC50 (ERα [4]; [9]): 25000 ± 1300 nM | EC50 (ERα [4]; read-out: ERα Agonist): > 10000 nM | EC50 (ERβ [2]; [10]): 89 nM | EC50 (ERβ [2]; read-out: ERβ Agonist): 93 ± 7 nM | IC50 (ERβ [3]; read-out: ERβ Antagonist (+E2), +E2): > 10000 nM | IC50 (ERα [5]; read-out: ERα Antagonist (+E2), +E2): > 10000 nM | IC50 (ERβ [6]): 15.2 ± 1.5 nM
Structure (SMILES): CCC1CCC(c2ccc(O)cc2)CC1 (centres unmarked) [RKP-231 IF]
